One molecule from paper PMC9599704, “Liposomal Entrapment or Chemical Modification of Relaxin2 for Prolongation of Its Stability and Biological Activity” (Biomolecules, 2022) can be followed below.

The data set can be described thus: in vitro. The protocol:
Samples were placed separately in hermetically sealed screw-tubes (to avoid evaporation) and then in an orbital incubator (Stuart S1500, UK) set at 50 rpm and 37 °C, for a period of up to 30 d. […] For quantification of free or liposomal peptides in the presence of 80% FBS, serum proteins precipitation was accomplished by mixing one volume of sample (100 μL) with three volumes (300 μL) of acidified isopropanol (with 0.1% TFA), followed by vortex agitation and centrifugation at 15000 rpm for 15 min. Next, the supernatant was transferred to a new eppendorf tube and 400 μL of HEPES (pH 5.0) were added, followed by vigorous vortex for 1 min, in order to retrieve the peptide. Finally, the samples were analyzed by HPLC, based on a calibration curve constructed at the exact same conditions as the samples to be analyzed.
For direct comparison of the stability of the different peptides, the results were normalized and expressed as the percentage of the corresponding initial peptide concentration measured at time point 0, for each peptide and each formulation (solution or liposome). Experiments were carried out in triplicate, and the results are expressed as the mean value ± standard deviation.

SMILES strings stand for the structures.

For orientation: half-life means how long it takes for the measured level to halve. A higher half-life goes with slow decline. As for `CC[C@H](C)[C@@H]1NC(=O)[C@H](C)NC(=O)[C@H]([C@@H](C)CC)NC(=O)[C@H](CCC(N)=O)NC(=O)[C@H](C)NC(=O)[C@H](CCCNC(=N)N)NC(=O)[C@H](C(C)C)NC(=O)[C@H](CC(C)C)NC(=O)[C@H](CCC(=O)O)NC(=O)[C@H](CCCNC(=N)N)NC(=O)CNC(=O)[C@@H](NC(=O)[C@H](CC(C)C)NC(=O)[C@H](CCCCN)NC(=O)[C@@H](NC(=O)[C@@H](NC(=O)[C@H](CCC(=O)O)NC(=O)[C@H](CCC(=O)O)NC(=O)[C@H](CCSC)NC(=O)[C@H](Cc2c[nH]c3ccccc23)NC(=O)[C@H](CO)NC(=O)[C@@H](N)CC(=O)O)C(C)C)[C@@H](C)CC)CSSC[C@@H]2NC(=O)[C@@H](NC(=O)[C@H](CCCCN)NC(=O)[C@H](CC(N)=O)NC(=O)[C@H](C)NC(=O)[C@H](CC(C)C)NC(=O)[C@H](C)NC(=O)[C@H](CO)NC(=O)[C@H](Cc3ccc(O)cc3)NC(=O)[C@H](CC(C)C)NC(=O)[C@@H]3CCC(=O)N3)CSSC[C@H](NC(=O)CNC(=O)[C@H](C(C)C)NC(=O)[C@H](Cc3c[nH]cn3)NC2=O)C(=O)N[C@@H]([C@@H](C)O)C(=O)N[C@@H](CCCCN)C(=O)N[C@@H](CCCNC(=N)N)C(=O)N[C@@H](CO)C(=O)N[C@@H](CC(C)C)C(=O)N[C@@H](C)C(=O)N[C@@H](CCCNC(=N)N)C(=O)N[C@@H](Cc2ccccc2)C(=O)N[C@H](C(=O)O)CSSC[C@@H](C(=O)NCC(=O)N[C@@H](CC[S+](C)[O-])C(=O)N[C@@H](CO)C(=O)N[C@H](C(=O)N[C@@H](Cc2c[nH]c3ccccc23)C(=O)N[C@@H](CO)C(=O)O)[C@@H](C)O)NC1=O` (some centres unmarked) [O-RLX2, Met (O)^25-human relaxin 2], the “peptide remaining after 10 d of incubation in FBS” value (FBS 80% v/v, 37 °C, 10 d, 58 ± 5.0 μg/mL peptide, HPLC, % of initial concentration, triplicate) is given as “all the free O-RLX2 peptide was degraded”. This molecule also showed a half-life (fetal bovine serum (FBS) 80% v/v) of 83.5 h.
